Consider five compounds from ChEMBL document CHEMBL2169841, “A simple solid phase, peptide-based fluorescent assay for the efficient and universal screening of HRV 3C protease inhibitors” (Bioorg Med Chem Lett, 2012).

Structures are written as SMILES. Values after ≈ are worked out from the molar mass of the structure shown.

Common to all, as to design: species or system rhinovirus B14
Experiment [1] can be described thus: Inhibition of human rhinovirus 14 recombinant N-terminal GST-tagged protease 3c expressed in Escherichia coli DH5alpha using LEVLFQGPSK(Fluoro)G as substrate after 1 hr by discontinuous heterogeneous fluorometric assay.
A short description of experiment [2]: Inhibition of human rhinovirus 14 recombinant N-terminal GST-tagged protease 3c expressed in Escherichia coli DH5alpha using Staphylococcus superantigen like protein 7-thioredoxin fusion protein as substrate after 1 hr by SDS-PAGE analysis.
Experiment [3] can be described thus: Inhibition of human rhinovirus 14 protease 3c by HPLC analysis.

Regarding `C=CCC1=C(Br)C(=O)c2ccccc2C1=O`, the IC50 in experiment [1] came out at 8.8 µM.

Take `CC(=O)CC1=C(Br)C(=O)c2ccccc2C1=O`: the half-maximal inhibitory concentration (IC50) in experiment [1] was determined as 62.7 µM.

In the case of `CC(O)CC1=C(Br)C(=O)c2ccccc2C1=O` (configuration not stated), the IC50 in experiment [1] came out at 92.5 µM.

As to `C[C@H]1CC2=C(C(=O)c3c(O)cc(O)cc3C2=O)[C@H](O)O1`, the half-inhibitory concentration (IC50) in experiment [2] amounted to 14.1 µg/mL; in experiment [3], 13 µg/mL (≈ 47.1 µM); in experiment [1], 53 µM.

For the compound `O=C1C=C(Br)C(=O)c2ccccc21` [2-Bromo-1,4-naphthoquinone], in experiment [1], the IC50 came to 4.2 µM.

In general, IC50 refers to the concentration needed to halve the response being measured.
